Measured values taken from patent US12594276B2, “Inhibitors of human immunodeficiency virus replication” (ViiV Healthcare UK (No.5) Limited, priority 2024, dated 2026).

Legend:
[1] = tested on: recombinant NL4-3 virus (nef section replaced with Renilla luciferase gene) in MT-2 cells; assay: HIV cell culture assay (antiviral activity, luciferase readout); type: cell-based; details: MT-2 cells infected for 4-5 days with recombinant NL4-3 Renilla luciferase virus
Procedure, shortened: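 EC50 was derived by median-effect fitting of Renilla luciferase signal from MT-2 cells. These cells were infected for 4–5 days with NL4-3 reporter virus (nef partly replaced by luciferase; made in 293T cells) in the presence of serially diluted compound. Activity was quantified with a live-cell luciferase substrate.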

uninfected MT2 cells = assay: Compound cytotoxicity, XTT-based colorimetric assay; type: cell-based; details: uninfected MT2 cells, day 4, XTT
Procedure, shortened: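 CC50 derived from XTT colorimetric signal measured on day 4 in MT2 cells that were not infected. All other steps followed the antiviral assay protocol.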

Cc1cc(C2(F)CCC(F)(F)CC2)nc2nc([C@H](Cc3cc(F)cc(F)c3)NC(=O)Cn3nc(C(F)F)c4c3C(F)(F)[C@@H]3C[C@H]43)n(-c3ccc(Cl)c4c(NS(C)(=O)=O)nn(C[C@@H](C)N5C[C@H](F)C[C@H](F)C5)c34)c(=O)c12 (atropisomer, axis not shown; (P)) [Example 703, N-[(1S)-1-[(3P)-3-{4-chloro-1-[(2S)-2-[(3R,5S)-3,5-difluoropiperidin-1-yl]propyl]-3-methanesulfonamido-1H-indazol-7-yl}-5-methyl-4-oxo-7-(1,4,4-trifluorocyclohexyl)-3H,4H-pyrido[2,3-d]pyrimidin-2-yl]-2-(3,5-difluorophenyl)ethyl]-2-[(2S,4R)-9-(difluoromethyl)-5,5-difluoro-7,8-diazatricyclo[4.3.0.0^2,^4]nona-1(6),8-dien-7-yl]acetamide] gave an EC50 [1] of 0.017 nM and a CC50 (uninfected MT2 cells) of over 20 nM.
